Laboratory results as given in patent US12662518B2, “Engineered peptide and peptide mimetic compositions and methods” (The Wistar Institute of Anatomy and Biology, priority 2019, dated 2026).
Values belong to the molecule of their own block, whether it stands above or below them. Peptide text beside a SMILES is read from it.

How the values were obtained:
PC3 cells = assay: cytochrome c release from tumor cells, Western blotting; assay type: cell-based, human; conditions: supernatants vs mitochondrial extracts
human recombinant VDAC = target: T1, human recombinant VDAC (Homo sapiens, UniProt P21796); assay: isothermal titration calorimetry (ITC); assay type: binding; conditions: 20° C.
T1 construct: The cleaved, full length hVDAC1 was collected from the HS-HQ flow through; hexahistidine-SUMO (N, cleaved yes); made in house; host or cells: E. coli ScarabXpress T7 lac
T1 sequence (P21796 whole entry): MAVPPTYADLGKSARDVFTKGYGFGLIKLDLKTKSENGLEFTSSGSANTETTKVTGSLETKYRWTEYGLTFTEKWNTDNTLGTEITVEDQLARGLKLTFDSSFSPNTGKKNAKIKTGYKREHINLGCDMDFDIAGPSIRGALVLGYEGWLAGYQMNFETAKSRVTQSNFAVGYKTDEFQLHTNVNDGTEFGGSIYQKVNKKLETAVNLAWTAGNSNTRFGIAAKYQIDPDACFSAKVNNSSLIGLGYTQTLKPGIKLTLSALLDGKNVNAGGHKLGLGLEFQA
Experimental: Expression and purification of human VDAC1. A full length human VDAC1 cDNA (hVDAC1) was cloned into pET28b vector containing an N-terminal hexahistidine-SUMO fusion tag, with a flexible linker cleavable by tobacco etch virus (TEV) protease. The hVDAC1 was expressed in E. coli ScarabXpress T7 lac competent cells (Scarab genomics) for 16 h at 16° C. using 1 mM IPTG (Denville Scientific Inc.). The cells were harvested by centrifugation and lysed on ice via sonication in buffer containing 25 mM Tris-HCl (pH 7.5), 1 M Urea, 1 M KCl, 5% glycerol, 1 mM Benzamidine and 1 mM PMSF (Ni Buffer A). The lysate was centrifuged at 18,000 rpm for 20 min at 4° C. The cell pellet was first washed extensively in Ni Buffer A with 1% Triton X-100 and then solubilized in buffer containing 20 mM Tris-HCl (pH 7.9), 500 mM NaCl, 4 M guanidine-HCl and 10% glycerol for 45 min with gentle stirring. The supernatant was collected following centrifugation at 20,000 rpm for 10 min at 4° C. The protein was then purified over nickel-nitrilotriacetic acid (Ni-NTA—Qiagen) column and buffer-exchanged to 25 mM Tris-HCl (pH 7.5), 500 mM KCl, 5% glycerol, 1 mM benzamidine and 1 mM PMSF (Ni buffer C) with 2% n-Octylglucoside (Research Products International). The protein was then eluted with 300 mM imidazole and treated overnight with TEV at 4° C. to cleave the His-SUMO tag. […]

[1] = test system: NSCLC A549 and H460 or breast adenocarcinoma MDA-231 and MCF-7 cells; assay: NSCLC and breast adenocarcinoma cell lines, TMRE flow cytometry and CellTox cell death; assay type: cell-based, human; conditions: A549, H460, MDA-231, MCF-7 cells, 10-25 μM, TMRE
[2] = test system: isolated tumor (PC3) mitochondria; assay: high-throughput assay for depolarization of isolated tumor (PC3) mitochondria, TMRE staining; assay type: biochemical, human; conditions: MFF peptides 20 μM
Experimental: Analysis of mitochondrial membrane potential. […] In some experiments, PC3 cells were treated with cell-permeable scrambled peptide or cell-permeable MFF #8-11 peptide, washed three times in PBS, pH 7.4, and analyzed on a FACSCalibur flow cytometer, with the TMRE signal as FL1. Intact cells were gated in the FSC/SSC plot to exclude small debris. Cells treated with 20 μM FCCP 10 min prior to TMRE staining were used as a negative control. The resulting FL1 data were plotted on a histogram. For quantification of membrane potential of purified mitochondria, mitochondria isolated from PC3 cells (50 μg) were suspended in 400 μl of SB buffer (0.2 M sucrose, 10 mM Tris-MOPS, pH 7.4, 5 mM succinate, 1 mM sodium phosphate, 10 μM EGTA-Tris, 2 μM rotenone). […] After two washes with SB buffer, mitochondria were recovered by centrifugation at 6000×g for 10 min, suspended in 100 μl of SB buffer and mitochondrial membrane potential was quantified on a florescence microplate reader (Ex/Em=535/595 nm, Beckman Coulter). Samples treated with 2 mM CaCl2 were used as control for the lowest membrane potential (fully depolarized state).

[3] = target: T2, MFF-PTP complex (MFF and VDAC or HK-I) (Homo sapiens, UniProt P21796); assay: competition of MFF-PTP complex in isolated cell extracts, Flag-MFF1 immunoprecipitation and Western blotting; assay type: biochemical; conditions: added to isolated cell extracts
T2 construct: VDAC and HK-I are endogenous
T2 sequence (P21796 2-283 limits assumed, one chain of several): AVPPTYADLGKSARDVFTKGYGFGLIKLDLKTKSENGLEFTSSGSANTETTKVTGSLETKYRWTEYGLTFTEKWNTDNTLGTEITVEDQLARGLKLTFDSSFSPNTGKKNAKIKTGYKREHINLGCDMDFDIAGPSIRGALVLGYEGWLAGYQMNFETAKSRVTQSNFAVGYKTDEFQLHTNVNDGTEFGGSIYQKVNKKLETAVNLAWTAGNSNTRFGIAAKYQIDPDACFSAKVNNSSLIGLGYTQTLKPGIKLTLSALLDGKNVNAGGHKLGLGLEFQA
Experimental: Immunoprecipitation (IP). Cells were harvested and lysed with IP buffer (50 mM Tris-HCl, pH 7.5, 150 mM NaCl, 1 mM EDTA) containing 1% CHAPS, EDTA-free Protease Inhibitor Cocktail (Sigma-Aldrich) and Phosphatase Inhibitor Cocktail PhosSTOP (Roche). After sonication, lysates were centrifuged at 15,000×g for 30 min, and cell extracts were incubated with anti-Flag-conjugated beads (Sigma-Aldrich). The precipitates were washed five times, separated by SDS-polyacrylamide gel electrophoresis and processed for Western blotting together with samples representing unbound material and supernatant.
Immunoprecipitation. Cells were harvested and lysed with PLD assay buffer (50 mM HEPES-NaOH, pH 7.3, 3 mM EGTA, 3 mM CaCl2, 3 mM MgCl2, 80 mM KCl) containing 1% CHAPS, EDTA-free Protease Inhibitor Cocktail (Sigma-Aldrich) and Phosphatase Inhibitor Cocktail PhosSTOP (Roche). After sonication, lysates were centrifuged at 15,000×g for 30 min, and cell extracts were incubated with anti-Flag-conjugated beads (Sigma-Aldrich). The precipitates were washed five times, separated by sodium dodecyl sulfate-polyacrylamide gel electrophoresis (SDS-PAGE) and processed for Western blotting.

[4] = test system: mitochondria of normal BPH-1 cells; assay: depolarization of isolated mitochondria of normal BPH-1 cells, TMRE staining; assay type: biochemical, human; conditions: peptide #8 10-30 μM
DU145 or PC3 cells = assay: release of HMGB1 and cyclophilin A from tumor cells, Western blotting; assay type: cell-based, human; conditions: marker of necrosis
[5] = test system: prostate cancer cell types (LNCaP, C4-2B, PC3, DU145); assay: cell death of prostate cancer cells, CellTox reactivity; assay type: cell-based, human; conditions: PC3 / prostate cancer cells, 0-50 μM
Experimental: Cell death and apoptosis. […] The various cell-permeable MFF peptides were examined for induction of cytotoxicity using a CellTOX Green cytotoxicity assay kit (Promega). Briefly, 10^4 normal or tumor cells in 100 μl complete medium were plated on white opaque 96-well plate. […] Lysis Solution in the assay kit was used as cytotoxicity control (100% cell death) and treatment with PBS was used as a control for 100% cell viability.

Molecule: AEMAEISRIQYEMEYTEGISQRMRVP (MFF-Derived; Peptide #1) [MFF #1]
cytochrome c release from tumor cells (PC3 cells): had no effect

Kd (human recombinant VDAC): ~12 µM
Molecule: CC[C@H](C)[C@H](NC(=O)CNC(=O)[C@H](CCCNC(=N)N)NC(=O)[C@H](C)NC(=O)[C@@H](N)CO)C(=O)N[C@@H](CC(C)C)C(=O)N[C@@H](CO)C(=O)N[C@@H](CC(C)C)C(=O)N[C@H](C(=O)N[C@@H](CCC(N)=O)C(=O)N[C@@H](CO)C(=O)N[C@@H](CO)C(=O)N[C@H](C(=O)N[C@@H](CCCNC(=N)N)C(=O)N[C@@H](CCCNC(=N)N)C(=O)N[C@@H](C)C(=O)N[C@@H](Cc1ccc(O)cc1)C(=O)N[C@@H](CCC(N)=O)C(=O)N[C@@H](CCC(N)=O)C(=O)N[C@H](C(=O)N[C@@H](CC(C)C)C(=O)O)[C@@H](C)CC)[C@@H](C)O)[C@@H](C)CC [MFF peptide #8-11] (H-SARGILSLIQSSTRRAYQQIL-OH)

binding to human recombinant VDAC by ITC (human recombinant VDAC): ineffective
Molecule: SSQLRYLARSQRITIQLIAGS (MFF Scramble; Peptide 8 #11) [scrambled sequence]
mitochondrial membrane potential [1]: not

Molecule: NLSSARGILSLIQSSTRRAYQQILDVL (MFF Deletion; Peptide 8 #1) [peptide #8 variant #1]
depolarization of isolated tumor (PC3) mitochondria [2]: depolarized isolated tumor mitochondria

Molecule: SARGILSLIQSSTRRAYQQILDVL (MFF Deletion; Peptide 8 #2) [peptide #8 variant #2]
depolarization of isolated tumor (PC3) mitochondria [2]: depolarized isolated tumor mitochondria

Molecule: DGANLSSARGILSLIQSSTRRAYQQILDVL (MFF-Derived; Peptide #8) [MFF peptide #8]
disruption of the interaction between MFF and VDAC or HK-I [3]: disrupting the interaction between MFF and VDAC or HK-I
depolarization of mitochondria of normal BPH-1 cells [4]: did not depolarize
depolarization of isolated tumor (PC3) mitochondria [2]: depolarized tumor mitochondria

Molecule: DGANLSSARGILSLIQSSTRRAYQQIL (MFF Deletion; Peptide 8 #6) [peptide #8 variant #6]
depolarization of isolated tumor (PC3) mitochondria [2]: depolarized isolated tumor mitochondria

Molecule: MFF peptide #8-11 containing the double mutation R225D/R236D (DD): cell-permeable MFF peptide #8-11 mutant containing the double mutation R225D/R236D (DD) (RQIKIWFQNRRMKSADGILSLIQSSTDRAYQQIL)
HMGB1 release from tumor cells (DU145 or PC3 cells): had no effect on HMGB1 release
HMGB1 release from tumor cells (DU145 or PC3 cells; listed as MFF-DD mutant peptide #8-11): did not induce HMGB1 release
tumor cell death / viability [5]: did not affect tumor cell viability
tumor cell death / viability ([5]; listed as DD): entirely lost the ability to induce tumor (PC3) cell death
